Test [1] concerns the target Mitogen-activated protein kinase kinase kinase 12 (Homo sapiens) (UniProt Q12852). In words: Inhibition of DLK Lys2 labeling site harbouring in human A-375 cells at 0.05 uM by KiNativ Profiling analysis relative to control.
The subject of test [2] is Tyrosine-protein kinase ABL1 (Homo sapiens), P00519 [E255K]. In words: Inhibition of phosphorylated ABL1 E255K mutant (unknown origin) at 1 uM by Ambit Kinomescan binding assay relative to control; values are per cent of control.
Test [3] deals with Leucine-rich repeat serine/threonine-protein kinase 2 (Homo sapiens), Q5S007 [G2019S]. In words: Inhibition of LRRK2 G2019S mutant (unknown origin) at 1 uM by Ambit Kinomescan binding assay relative to control; values are per cent of control.
Test [4] concerns the target Mitogen-activated protein kinase 7 (Homo sapiens) (UniProt Q13164). In words: Inhibition of Erk5 K2 labeling site in human Huh-7 cells at 1 uM by KiNativ Profiling analysis relative to control. It counts as cell-based.
Test [5] concerns the target Angiopoietin-1 receptor (Homo sapiens) (UniProt Q02763). The experiment in a line: Inhibition of TIE2 (unknown origin) at 10 uM by Ambit Kinomescan binding assay relative to control; values are per cent of control.
Test [6] has as its target Mitogen-activated protein kinase 14 (Homo sapiens, UniProt Q16539). In words: Inhibition of p38alpha K2 labeling site in human Huh-7 cells at 1 uM by KiNativ Profiling analysis relative to control. The format is cell-based.
Test [7] addresses Serine/threonine-protein kinase 16 (Homo sapiens) (UniProt O75716). In words: Inhibition of STK16 (unknown origin) at 10 uM by Ambit Kinomescan binding assay.
In test [8] the target is T1, Inhibitor of nuclear factor kappa-B kinase subunit alpha (Homo sapiens) (UniProt O15111).
T1 sequence (whole entry): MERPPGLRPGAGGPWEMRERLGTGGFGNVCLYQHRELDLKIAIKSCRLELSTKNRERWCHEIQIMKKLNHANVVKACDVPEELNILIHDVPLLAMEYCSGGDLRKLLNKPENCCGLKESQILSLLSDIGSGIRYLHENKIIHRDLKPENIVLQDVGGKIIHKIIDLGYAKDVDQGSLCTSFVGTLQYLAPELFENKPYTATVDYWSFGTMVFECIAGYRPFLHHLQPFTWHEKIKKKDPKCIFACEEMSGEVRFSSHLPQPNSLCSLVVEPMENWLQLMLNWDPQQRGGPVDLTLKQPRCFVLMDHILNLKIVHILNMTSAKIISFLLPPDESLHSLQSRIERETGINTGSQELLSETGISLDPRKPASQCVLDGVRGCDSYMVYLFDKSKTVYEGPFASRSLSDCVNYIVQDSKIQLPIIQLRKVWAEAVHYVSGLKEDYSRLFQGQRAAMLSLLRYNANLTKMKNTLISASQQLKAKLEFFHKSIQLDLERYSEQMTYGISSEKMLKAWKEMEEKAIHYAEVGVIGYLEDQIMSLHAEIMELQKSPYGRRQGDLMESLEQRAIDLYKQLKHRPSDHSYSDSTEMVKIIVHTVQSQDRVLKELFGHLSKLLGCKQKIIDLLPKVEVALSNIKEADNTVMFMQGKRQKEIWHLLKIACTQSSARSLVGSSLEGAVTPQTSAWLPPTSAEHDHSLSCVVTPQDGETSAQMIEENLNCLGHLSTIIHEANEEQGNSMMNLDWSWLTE
The experiment in a line: Inhibition of IKK-alpha (unknown origin) at 10 uM by Ambit Kinomescan binding assay relative to control; values are per cent of control.

Test [9] has as its target DNA-PK/Ku70/Ku85 (Homo sapiens) (UniProt P78527+P12956+P13010). In words: Inhibition of DNAPK ATP labeling site harbouring GHDEREHPFLVKGGEDLRQDQR in human A-375 cells at 0.5 uM by KiNativ Profiling analysis relative to control. It counts as cell-based.
In test [10] the target is Tyrosine-protein kinase CSK (Homo sapiens, UniProt P41240). The experiment in a line: Inhibition of CSK ACT labeling site in human A-375 cells at 5 uM by KiNativ Profiling analysis relative to control. It counts as cell-based.
Tyrosine-protein kinase CSK, sequence (P41240 2-450 limits assumed): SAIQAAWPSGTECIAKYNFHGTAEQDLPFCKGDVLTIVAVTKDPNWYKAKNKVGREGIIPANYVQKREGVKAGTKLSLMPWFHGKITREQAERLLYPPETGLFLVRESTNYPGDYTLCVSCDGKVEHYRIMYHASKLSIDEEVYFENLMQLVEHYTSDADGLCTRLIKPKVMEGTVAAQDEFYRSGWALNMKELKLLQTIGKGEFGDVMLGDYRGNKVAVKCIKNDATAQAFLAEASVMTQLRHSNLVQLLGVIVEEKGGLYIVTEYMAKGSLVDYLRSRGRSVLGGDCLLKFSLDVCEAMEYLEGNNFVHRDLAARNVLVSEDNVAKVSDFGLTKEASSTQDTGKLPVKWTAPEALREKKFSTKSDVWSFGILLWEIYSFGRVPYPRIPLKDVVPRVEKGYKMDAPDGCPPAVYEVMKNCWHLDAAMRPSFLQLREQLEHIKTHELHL
Test [11] concerns the target Tyrosine-protein kinase BTK (Homo sapiens) (UniProt Q06187). The experiment in a line: Inhibition of BTK (unknown origin) at 10 uM by Ambit Kinomescan binding assay.
For test [12], the target named is T2, Phosphatidylinositol 5-phosphate 4-kinase type-2 gamma (Homo sapiens) (UniProt Q8TBX8).
T2 sequence (whole entry): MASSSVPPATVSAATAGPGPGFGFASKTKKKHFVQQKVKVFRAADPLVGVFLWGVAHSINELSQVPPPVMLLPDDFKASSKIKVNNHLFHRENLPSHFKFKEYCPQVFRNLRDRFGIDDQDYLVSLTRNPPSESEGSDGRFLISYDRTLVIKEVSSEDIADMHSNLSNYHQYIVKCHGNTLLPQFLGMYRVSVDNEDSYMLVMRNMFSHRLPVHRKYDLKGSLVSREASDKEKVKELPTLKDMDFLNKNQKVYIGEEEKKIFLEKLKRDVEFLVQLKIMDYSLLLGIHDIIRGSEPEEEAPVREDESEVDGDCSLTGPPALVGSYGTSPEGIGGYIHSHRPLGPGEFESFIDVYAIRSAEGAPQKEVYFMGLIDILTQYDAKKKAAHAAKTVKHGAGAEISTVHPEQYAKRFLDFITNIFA
The experiment in a line: Inhibition of PIP5K2C C2 labeling site in human Huh-7 cells at 1 uM by KiNativ Profiling analysis relative to control. It counts as cell-based.

A short description of test [13]: Inhibition of […] K2 labeling site in human Huh-7 cells at 10 uM by KiNativ Profiling analysis relative to control. The note with it: condition cancer.
Test [14] deals with T3, Aurora kinase C (Homo sapiens) (UniProt Q9UQB9).
T3 sequence (whole entry): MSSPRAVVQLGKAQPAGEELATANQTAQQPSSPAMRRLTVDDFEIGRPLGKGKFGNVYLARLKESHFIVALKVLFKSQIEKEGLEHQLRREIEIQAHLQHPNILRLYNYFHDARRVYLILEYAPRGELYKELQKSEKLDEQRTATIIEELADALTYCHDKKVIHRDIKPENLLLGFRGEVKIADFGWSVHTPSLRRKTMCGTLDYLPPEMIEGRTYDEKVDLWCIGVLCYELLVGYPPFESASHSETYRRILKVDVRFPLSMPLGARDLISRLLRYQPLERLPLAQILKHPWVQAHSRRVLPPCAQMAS
In words: Inhibition of AurC ATP labeling site in human Huh-7 cell lysate at 1 uM by KiNativ Profiling analysis relative to control. The format is subcellular.

The target of test [15] is Serine/threonine-protein kinase 16 (Homo sapiens) (UniProt O75716). In words: Inhibition of MPSK1 Lys2 labeling site in human Huh-7 cell lysate at 1 uM by KiNativ Profiling analysis relative to control. The format is subcellular.
Serine/threonine-protein kinase 16 (Homo sapiens), sequence (O75716 whole entry): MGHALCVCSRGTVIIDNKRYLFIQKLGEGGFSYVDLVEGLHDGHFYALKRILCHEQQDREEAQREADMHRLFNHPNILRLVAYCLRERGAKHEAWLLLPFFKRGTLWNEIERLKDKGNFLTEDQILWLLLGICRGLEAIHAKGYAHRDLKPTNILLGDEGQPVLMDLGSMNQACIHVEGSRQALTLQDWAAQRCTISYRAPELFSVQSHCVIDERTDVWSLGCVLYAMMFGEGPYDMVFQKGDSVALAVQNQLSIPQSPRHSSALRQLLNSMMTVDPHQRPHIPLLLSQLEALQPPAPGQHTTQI
Test [16] has as its target T2, Phosphatidylinositol 5-phosphate 4-kinase type-2 gamma (Homo sapiens). The experiment in a line: Inhibition of PIP4K2C ATP labeling site harbouring VKELPTLKDMDFLNK in human Huh-7 cell lysate at 1 uM by KiNativ Profiling analysis relative to control. The format is subcellular.

The values that follow come from ChEMBL document CHEMBL5696442, “Discovery of type II inhibitors of TGFβ-activated kinase 1 (TAK1) and mitogen-activated protein kinase kinase kinase kinase 2 (MAP4K2)” (J Med Chem, 2015).

The structures appear in SMILES notation. Calls of active or inactive are those of the source. No cut-off for these calls is given here.

Angiopoietin-1 receptor (Homo sapiens), sequence (Q02763 whole entry): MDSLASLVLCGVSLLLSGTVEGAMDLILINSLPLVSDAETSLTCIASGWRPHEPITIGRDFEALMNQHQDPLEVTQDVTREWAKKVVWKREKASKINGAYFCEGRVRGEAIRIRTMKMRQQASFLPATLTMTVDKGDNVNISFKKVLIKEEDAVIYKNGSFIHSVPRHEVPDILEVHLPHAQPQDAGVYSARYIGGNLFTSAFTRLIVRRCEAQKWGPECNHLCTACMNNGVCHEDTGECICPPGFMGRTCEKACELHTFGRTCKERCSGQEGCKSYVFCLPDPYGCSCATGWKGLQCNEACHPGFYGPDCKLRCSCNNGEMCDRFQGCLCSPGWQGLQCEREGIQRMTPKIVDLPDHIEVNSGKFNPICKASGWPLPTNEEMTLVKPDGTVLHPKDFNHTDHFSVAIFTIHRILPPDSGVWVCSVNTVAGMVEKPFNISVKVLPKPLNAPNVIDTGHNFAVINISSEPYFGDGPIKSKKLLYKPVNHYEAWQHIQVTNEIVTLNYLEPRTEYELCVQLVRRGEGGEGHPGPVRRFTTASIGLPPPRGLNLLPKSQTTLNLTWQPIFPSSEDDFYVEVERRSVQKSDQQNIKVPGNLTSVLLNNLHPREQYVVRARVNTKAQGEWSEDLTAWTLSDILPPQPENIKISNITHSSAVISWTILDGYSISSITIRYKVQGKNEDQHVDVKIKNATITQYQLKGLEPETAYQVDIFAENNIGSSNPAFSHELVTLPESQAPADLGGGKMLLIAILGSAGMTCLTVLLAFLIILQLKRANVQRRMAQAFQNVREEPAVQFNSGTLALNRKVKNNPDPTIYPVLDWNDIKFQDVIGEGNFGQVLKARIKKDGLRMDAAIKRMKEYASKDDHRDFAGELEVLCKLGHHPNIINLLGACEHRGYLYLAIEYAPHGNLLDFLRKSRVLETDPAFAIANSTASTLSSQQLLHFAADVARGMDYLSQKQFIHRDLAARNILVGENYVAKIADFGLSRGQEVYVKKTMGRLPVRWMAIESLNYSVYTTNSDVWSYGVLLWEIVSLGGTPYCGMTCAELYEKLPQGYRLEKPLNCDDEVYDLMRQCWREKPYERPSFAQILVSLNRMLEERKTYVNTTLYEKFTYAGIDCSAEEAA
Mitogen-activated protein kinase kinase kinase 12 (Homo sapiens), sequence (Q12852 whole entry, looked up): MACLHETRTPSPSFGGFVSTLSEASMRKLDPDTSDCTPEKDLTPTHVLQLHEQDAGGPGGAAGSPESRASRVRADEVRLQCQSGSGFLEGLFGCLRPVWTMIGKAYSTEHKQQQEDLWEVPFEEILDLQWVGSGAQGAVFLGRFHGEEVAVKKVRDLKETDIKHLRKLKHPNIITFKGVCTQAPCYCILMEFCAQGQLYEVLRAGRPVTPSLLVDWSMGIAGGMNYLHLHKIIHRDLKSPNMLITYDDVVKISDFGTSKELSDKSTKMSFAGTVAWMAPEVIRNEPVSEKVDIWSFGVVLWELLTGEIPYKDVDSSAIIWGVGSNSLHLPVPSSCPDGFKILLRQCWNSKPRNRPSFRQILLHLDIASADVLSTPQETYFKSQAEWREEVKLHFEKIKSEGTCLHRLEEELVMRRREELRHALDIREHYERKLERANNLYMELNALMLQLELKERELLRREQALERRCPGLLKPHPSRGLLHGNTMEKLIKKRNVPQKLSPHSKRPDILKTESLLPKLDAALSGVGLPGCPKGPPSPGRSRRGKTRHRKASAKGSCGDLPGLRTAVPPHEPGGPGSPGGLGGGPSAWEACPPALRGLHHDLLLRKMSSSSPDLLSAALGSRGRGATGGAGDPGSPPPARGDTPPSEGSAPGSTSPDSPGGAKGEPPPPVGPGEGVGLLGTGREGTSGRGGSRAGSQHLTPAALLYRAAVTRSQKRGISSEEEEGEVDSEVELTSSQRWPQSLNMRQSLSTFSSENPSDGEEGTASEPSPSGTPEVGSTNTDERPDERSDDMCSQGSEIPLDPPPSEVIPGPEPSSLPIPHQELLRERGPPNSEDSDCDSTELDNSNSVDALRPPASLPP
Tyrosine-protein kinase ABL1 (Homo sapiens), P00519 [E255K], sequence (P00519 whole entry E255K): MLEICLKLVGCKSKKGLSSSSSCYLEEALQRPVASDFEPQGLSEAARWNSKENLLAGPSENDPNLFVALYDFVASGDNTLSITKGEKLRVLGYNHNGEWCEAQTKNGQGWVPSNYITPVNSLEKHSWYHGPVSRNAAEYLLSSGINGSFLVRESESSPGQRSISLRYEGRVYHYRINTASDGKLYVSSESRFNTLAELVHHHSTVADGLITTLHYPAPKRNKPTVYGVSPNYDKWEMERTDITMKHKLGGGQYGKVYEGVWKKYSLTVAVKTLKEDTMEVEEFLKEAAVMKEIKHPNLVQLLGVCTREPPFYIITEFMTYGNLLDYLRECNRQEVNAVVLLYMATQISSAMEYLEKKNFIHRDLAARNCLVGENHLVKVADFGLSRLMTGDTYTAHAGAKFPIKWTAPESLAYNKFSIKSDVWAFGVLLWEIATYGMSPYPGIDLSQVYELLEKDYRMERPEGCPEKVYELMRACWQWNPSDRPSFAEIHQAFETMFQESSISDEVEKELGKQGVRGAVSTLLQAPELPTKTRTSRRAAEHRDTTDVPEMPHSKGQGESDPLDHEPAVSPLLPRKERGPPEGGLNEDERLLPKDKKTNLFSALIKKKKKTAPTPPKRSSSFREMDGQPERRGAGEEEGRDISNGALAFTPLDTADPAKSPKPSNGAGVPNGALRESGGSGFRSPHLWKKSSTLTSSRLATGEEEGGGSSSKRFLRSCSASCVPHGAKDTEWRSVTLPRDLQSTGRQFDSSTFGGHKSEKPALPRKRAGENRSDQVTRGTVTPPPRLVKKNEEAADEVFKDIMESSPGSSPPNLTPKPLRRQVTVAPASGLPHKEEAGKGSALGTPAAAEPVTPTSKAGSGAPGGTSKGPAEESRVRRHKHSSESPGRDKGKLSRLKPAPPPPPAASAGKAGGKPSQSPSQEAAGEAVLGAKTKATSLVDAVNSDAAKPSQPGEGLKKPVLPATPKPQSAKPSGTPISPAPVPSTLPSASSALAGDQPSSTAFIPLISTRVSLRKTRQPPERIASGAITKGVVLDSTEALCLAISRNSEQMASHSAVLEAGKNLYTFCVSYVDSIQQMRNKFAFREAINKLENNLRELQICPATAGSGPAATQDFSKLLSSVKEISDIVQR
Mitogen-activated protein kinase 7 (Homo sapiens), sequence (Q13164 2-816 limits assumed): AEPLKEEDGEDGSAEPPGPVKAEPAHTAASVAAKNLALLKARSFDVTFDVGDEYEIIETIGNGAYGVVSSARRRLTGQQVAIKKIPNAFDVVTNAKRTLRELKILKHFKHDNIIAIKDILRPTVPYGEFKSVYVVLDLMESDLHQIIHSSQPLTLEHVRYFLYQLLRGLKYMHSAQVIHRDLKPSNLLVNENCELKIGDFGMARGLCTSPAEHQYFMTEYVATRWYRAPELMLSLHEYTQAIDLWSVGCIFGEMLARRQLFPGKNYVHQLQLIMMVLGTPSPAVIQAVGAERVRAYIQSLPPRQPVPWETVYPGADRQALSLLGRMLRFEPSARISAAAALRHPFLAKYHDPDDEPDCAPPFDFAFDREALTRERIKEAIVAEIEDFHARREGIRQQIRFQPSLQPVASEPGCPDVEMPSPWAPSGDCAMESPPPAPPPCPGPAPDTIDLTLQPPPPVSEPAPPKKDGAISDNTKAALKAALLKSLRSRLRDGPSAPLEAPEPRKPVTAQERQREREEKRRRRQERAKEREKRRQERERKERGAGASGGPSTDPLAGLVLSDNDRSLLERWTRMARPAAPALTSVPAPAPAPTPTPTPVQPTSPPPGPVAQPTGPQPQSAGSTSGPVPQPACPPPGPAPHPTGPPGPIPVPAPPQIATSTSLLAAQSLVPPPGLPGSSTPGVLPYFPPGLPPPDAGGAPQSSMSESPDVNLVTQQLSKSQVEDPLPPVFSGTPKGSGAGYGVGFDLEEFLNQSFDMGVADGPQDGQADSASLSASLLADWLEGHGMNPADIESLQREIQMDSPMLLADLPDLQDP
Mitogen-activated protein kinase 14, sequence (Q16539 whole entry): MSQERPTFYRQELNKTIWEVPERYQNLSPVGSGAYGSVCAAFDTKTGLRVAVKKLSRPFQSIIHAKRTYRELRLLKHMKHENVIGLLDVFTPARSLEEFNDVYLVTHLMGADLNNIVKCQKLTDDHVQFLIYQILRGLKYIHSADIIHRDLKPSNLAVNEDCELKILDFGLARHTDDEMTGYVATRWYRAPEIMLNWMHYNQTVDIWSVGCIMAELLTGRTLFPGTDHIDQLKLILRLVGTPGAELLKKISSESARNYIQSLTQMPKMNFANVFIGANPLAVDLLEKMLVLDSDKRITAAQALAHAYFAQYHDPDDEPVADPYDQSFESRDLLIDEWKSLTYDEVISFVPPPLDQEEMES

By inhibition is commonly meant the drop in the measured response relative to a control, in per cent. One may read the residual activity as the share of the control activity or signal that is left under treatment. Low readings indicate a large loss of activity, high ones a small loss of activity. Take `CCN1CCN(Cc2ccc(NC(=O)c3ccc(C)c(/C=C/c4cnc5[nH]ccc5c4OC)c3)cc2C(F)(F)F)CC1`: the inhibition in test [1] is 9%. This molecule showed a percent of control in test [2] of 0.85%. The molecule further displayed a residual activity in test [3] of 71%.
On to `CCN1CCN(Cc2ccc(NC(=O)c3ccc(C)c(Oc4ccnc5[nH]ccc45)c3)cc2C(F)(F)F)CC1`, for which the inhibition in test [4] was 14.6%; in test [6], 7.1%; in [9], -6%; in test [10], 57.7%; in test [12] it was 1.3%. In test [5], this molecule displayed a residual activity of 0%. Moreover, the inhibition result in test [7] and in test [11] was “inactive” in each case. This molecule also returned a percent of control in test [8] of 0.95%. The inhibition at 10 µM in [13] was -6.7%.
On to `CNc1cc(Oc2cc(C(=O)Nc3cc(N4CCN(C)CC4)cc(C(F)(F)F)c3)ccc2C)ncn1`, for which the values for the inhibition in [14], in test [15] and in test [16] were 2.5%, 4.6% and 11.6%, respectively.
